Results as given in patent publication US20170226139A1, “CRYSTALLINE SALTS OF (Z)-O-OCTADEC-9-EN-1-YL O,O-DIHYDROGEN PHOSPHOROTHIOATE” (priority 2013, published 2017).

What was measured:
[1] = molecular target: LPA2 receptors from the rhesus (Macaca mulatta, UniProt I2CXV3); assay: Calcium-mobilization assay (FURA-2), rhesus LPA2; type: cell-based
Procedure: (§1) We investigated structure-activity relationships across species, LPAR subtypes and between Rx100 and two known process impurities encountered in manufacture: Rx103 (‘E’ isomer) and Rx200 (oleyl phosphate and impurity, which can be an Rx100 degradant along with oleyl alcohol). Rx100, Rx103, Rx200 and native LPA were investigated at different human LPAR subtypes. In addition, the activity of these compounds was evaluated at LPA2 receptors from the rhesus, rat and mouse species. Human LPA1/2/3 subtypes were transfected into mouse embryonic fibroblasts (MEF) or rat hepatoma cells (RH7777)—both of which are normally non-responsive or null to LPA. Human LPA4 was transfected into Chinese hamster ovary (CHO) cells and LPA5 into the B103 neuroblastoma cell line. […] The B103 rat neuroblastoma cell line is endogenously nonresponsive to LPA but expresses heterologous LPA5 receptors well. […] LPAR activation elicits a G-protein-mediated transient rise in intracellular calcium level that is proportional to the concentration of LPA applied. The intracellular calcium level was quantified by the calcium-selective fluorescent indicator FURA-2 (e.g., increased intracellular calcium surge=increased fluorescence).

[2] = molecular target: T1, LPA5 (Homo sapiens, UniProt Q9H1C0); assay: Calcium-mobilization assay (FURA-2), LPA5 in B103 neuroblastoma cells; type: cell-based
T1 construct: expressed in transfected cells; host or cells: B103 rat neuroblastoma
T1 sequence (Q9H1C0 whole entry): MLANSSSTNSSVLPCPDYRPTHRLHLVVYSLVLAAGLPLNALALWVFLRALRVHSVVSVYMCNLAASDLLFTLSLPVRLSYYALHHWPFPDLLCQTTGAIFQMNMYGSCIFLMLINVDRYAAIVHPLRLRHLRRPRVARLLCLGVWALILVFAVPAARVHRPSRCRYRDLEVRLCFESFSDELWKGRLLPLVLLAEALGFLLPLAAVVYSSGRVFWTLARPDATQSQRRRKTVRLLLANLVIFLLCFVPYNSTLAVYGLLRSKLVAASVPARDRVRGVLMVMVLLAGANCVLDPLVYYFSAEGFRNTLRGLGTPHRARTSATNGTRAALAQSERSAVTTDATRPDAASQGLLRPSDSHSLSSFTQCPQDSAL
Procedure: as §1

Chain of LPA2 receptors from the rhesus (I2CXV3 1-351): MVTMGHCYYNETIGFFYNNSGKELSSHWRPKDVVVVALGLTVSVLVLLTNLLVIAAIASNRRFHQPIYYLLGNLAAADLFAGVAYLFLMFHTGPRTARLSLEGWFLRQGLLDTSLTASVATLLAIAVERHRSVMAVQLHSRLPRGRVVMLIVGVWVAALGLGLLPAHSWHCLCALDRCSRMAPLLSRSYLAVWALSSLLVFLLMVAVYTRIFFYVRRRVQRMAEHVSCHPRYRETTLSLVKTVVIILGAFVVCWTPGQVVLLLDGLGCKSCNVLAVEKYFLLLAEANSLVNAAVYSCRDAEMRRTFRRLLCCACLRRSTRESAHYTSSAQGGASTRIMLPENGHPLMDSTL

CCCCCCCC/C=C\CCCCCCCCOP(O)(O)=S [Rx100, (Z)—O-octadec-9-en-1-yl O,O-dihydrogen phosphorothioate]
EC50 [1]: 104 nM
Emax ([1]; read-out: Emax (% of LPA)): 100%
EC50 [2]: 100 nM
Emax ([2]; B103, read-out: Emax (% of LPA)): 104%
